{"source": "ChEMBL document CHEMBL1158271", "about": "“Lupane derivatives from Lophopetalum wallichii with farnesyl protein transferase inhibitory activity” (J Nat Prod, 1996)", "key": {"[1]": {"experiment": "Inhibition of recombinant protein farnesyltransferase-mediated [3H]FPP transfer after 30 mins by scintillation counting"}, "[2]": {"experiment": "Cytotoxicity against human BC1 cells", "type": "functional, cell-based"}, "HT": {"tested_on": "HT", "experiment": "Cytotoxicity against human HT cells", "type": "functional, cell-based"}, "Lu1": {"tested_on": "Lu1", "experiment": "Cytotoxicity against human Lu1 cells", "type": "functional, cell-based"}, "SK-MEL-2": {"tested_on": "SK-MEL-2", "experiment": "Cytotoxicity against human SK-MEL-2 cells", "type": "functional, cell-based"}, "KB": {"tested_on": "KB", "experiment": "Cytotoxicity against human KB cells", "type": "functional, cell-based"}, "[3]": {"experiment": "Cytotoxicity against human KBVIN cells", "type": "functional, cell-based"}, "A-431": {"tested_on": "A-431", "experiment": "Cytotoxicity against human A431 cells", "type": "functional, cell-based"}, "LNCaP": {"tested_on": "LNCaP", "experiment": "Cytotoxicity against human LNCAP cells", "type": "functional, cell-based"}, "ZR-75-1": {"tested_on": "ZR-75-1", "experiment": "Cytotoxicity against human ZR-75-1 cells", "type": "functional, cell-based"}, "[4]": {"experiment": "Cytotoxicity against human U373 cells", "type": "functional, cell-based, U-373MG ATCC", "conditions": "U373 MG"}, "Col2": {"tested_on": "Col2", "experiment": "Cytotoxicity against human Col2 cells", "type": "functional, cell-based"}}}
{"smiles": "CC1(C)C(=O)CC[C@]2(C)[C@H]3CC[C@@H]4[C@H]5[C@H]6[C@@H](C[C@]5(C)CC[C@@]4(C)[C@]3(C)CC[C@@H]12)OC(=O)[C@]61CO1", "note": "[20-EPI-OCHRACEOLIDE B]", "values": [{"measurement": "IC50", "setting": "[1]", "value": "> 100", "unit": "µg/mL"}]}
{"smiles": "C=C(C)[C@@H]1CC[C@]2(CO)CC[C@]3(C)[C@H](CC[C@@H]4[C@@]5(C)CC[C@H](O)C(C)(C)[C@@H]5CC[C@]43C)[C@@H]12", "note": "[BETULIN]", "values": [{"measurement": "IC50", "setting": "[1]", "value": 1, "unit": "µg/mL"}]}
{"smiles": "C=C1C(=O)O[C@@H]2C[C@]3(C)CC[C@]4(C)[C@H](CC[C@@H]5[C@@]6(C)CC[C@H](O)C(C)(C)[C@@H]6CC[C@]54C)[C@H]3[C@H]12", "note": "[DIHYDRO OCHRACEOLIDE A]", "values": [{"measurement": "IC50", "setting": "[1]", "value": "> 100", "unit": "µg/mL"}, {"measurement": "EC50", "setting": "[2]", "value": 10.2, "unit": "µg/mL"}, {"measurement": "EC50", "setting": "HT", "value": 9.6, "unit": "µg/mL"}, {"measurement": "EC50", "setting": "Lu1", "value": 8.9, "unit": "µg/mL"}, {"measurement": "EC50", "setting": "SK-MEL-2", "value": "> 20", "unit": "µg/mL"}, {"measurement": "EC50", "setting": "KB", "value": "> 20", "unit": "µg/mL"}, {"measurement": "EC50", "setting": "[3]", "value": "> 20", "unit": "µg/mL"}, {"measurement": "EC50", "setting": "A-431", "value": 6.8, "unit": "µg/mL"}, {"measurement": "EC50", "setting": "LNCaP", "value": 14.5, "unit": "µg/mL"}, {"measurement": "EC50", "setting": "ZR-75-1", "value": 3, "unit": "µg/mL"}, {"measurement": "EC50", "setting": "[4]", "value": 9.1, "unit": "µg/mL"}, {"measurement": "EC50", "setting": "Col2", "value": 12.1, "unit": "µg/mL"}]}
{"smiles": "C=C(C)[C@@H]1CC[C@]2(C)CC[C@]3(C)[C@H](CC[C@@H]4[C@@]5(C)CC[C@H](O)C(C)(C)[C@@H]5CC[C@]43C)[C@@H]12", "note": "[LUPEOL]", "values": [{"measurement": "IC50", "setting": "[1]", "value": 65, "unit": "µg/mL"}]}
{"smiles": "C=C1C(=O)O[C@@H]2C[C@]3(C)CC[C@]4(C)[C@H](CC[C@@H]5[C@@]6(C)CCC(=O)C(C)(C)[C@@H]6CC[C@]54C)[C@H]3[C@H]12", "note": "[OCHRACEOLIDE A]", "values": [{"measurement": "IC50", "setting": "[1]", "value": "> 100", "unit": "µg/mL"}, {"measurement": "EC50", "setting": "[2]", "value": 7.9, "unit": "µg/mL"}, {"measurement": "EC50", "setting": "HT", "value": 8.6, "unit": "µg/mL"}, {"measurement": "EC50", "setting": "Lu1", "value": 16.1, "unit": "µg/mL"}, {"measurement": "EC50", "setting": "SK-MEL-2", "value": "> 20", "unit": "µg/mL"}, {"measurement": "EC50", "setting": "KB", "value": "> 20", "unit": "µg/mL"}, {"measurement": "EC50", "setting": "[3]", "value": 17.2, "unit": "µg/mL"}, {"measurement": "EC50", "setting": "A-431", "value": "> 20", "unit": "µg/mL"}, {"measurement": "EC50", "setting": "LNCaP", "value": 13.4, "unit": "µg/mL"}, {"measurement": "EC50", "setting": "ZR-75-1", "value": 4.5, "unit": "µg/mL"}, {"measurement": "EC50", "setting": "[4]", "value": 6.7, "unit": "µg/mL"}, {"measurement": "EC50", "setting": "Col2", "value": "> 20", "unit": "µg/mL"}]}
